Source: patent EP4681700A1, “GSE24.2-DERIVED PEPTIDE AND USES THEREOF” (Consejo Superior De Investigaciones Científicas - CSIC, priority 2023, dated 2026)

Assays:
HaCaT cells [1] = experiment: TERT and TERC mRNA expression by quantitative PCR in transduced cells; type: cell-based, human; conditions: corrected by GAPDH, normalised to CT; for expression of Terc: p<0.001 for P3 only, Figure 3D; for expression of TERT: p<0.01 for both peptides, Figure 3C
From the text: (§1) RNA was isolated from control cells or cells transduced with vectors expressing GFP or the GSE4 and P3 peptides. The corresponding cDNAs, which were used to determine the expression levels of the mRNA encoding TERT (Figure 3, panels A and C) and TERC (Figure 3, panels B and D) by means of quantitative PCR, were synthesised from these RNAs. Expression levels were corrected by levels corresponding to the mRNA encoding GAPDH, used as a control. Relative values were normalised with respect to values obtained for non-transduced control cells (CT). Panels A and B show the results obtained for RL6TN cells and panels C and D show the results corresponding to HaCaT cells.
The results obtained for HaCaT cells are depicted in Figures 3C and 3D where oligonucleotides corresponding to SEQ ID Nos: 21, 22 for TERT, SEQ ID Nos: 25, 26 for TERC, and SEQ ID Nos: 41, 42 for GAPDH were used. […] This difference is statistically significant for both peptides in the case of TERT (**, p<0.01, ANOVA test and Dunnett's post-hoc test) and for the P3 peptide in the case of TERC (***, p<0.001, ANOVA test and Dunnett's post-hoc test).

HaCaT cells [2] = experiment: yH2AX Western blot (DNA damage signalling) in transduced keratinocytes; type: cell-based, human; conditions: 6 hours
From the text: (§2) RL6TN cells were transduced with lentiviral vectors directing the expression of the different peptides under study (sequences derived from pCCL-hPGK.GSE4.wPREchim, SEQ ID NO. 62, in which the oligonucleotides corresponding to each peptide, shown in Table 4, SEQ ID Nos: 46-60, have been included between restriction sites Sall and Xbal) or of the GFP protein (green fluorescent protein) (PGK-EGFP sequence, SEQ ID NO. 63) as negative control. 600,000 non-transduced (control, CT) cells or cells transduced with the different lentiviral vectors were cultured for 6 hours in the absence (Panel A) or presence of 4 µg/mL of bleomycin (Merck, Burlington, MA. USA) (Panel B). After this culture period, the cells were lysed and the amount of yH2AX was determined by means of Western blot using an yH2AX-specific antibody (Cell Signalling Technology, Danvers, MA, USA). Expression of the β-actin protein as loading control was simultaneously determined using a specific antibody (Santa Cruz Biotechnology, Dallas, TX, USA). Protein expression was quantified using a luminometer. The expression of yH2AX in each sample was calculated based on the amount of β-actin. These relative values were normalised to the value corresponding to control cells not treated with bleomycin.
DNA damage signalling studies were reproduced in human skill keratinocyte cell line HaCaT. This cell line is often used to study skin's response to environmental and pathogenic agents. HaCaT cells were transduced with lentiviral vectors which allow the expression of the P3 peptide, the GSE4 peptide, as a positive control, or GFP as a negative control. 100,000 non-transduced (CT) cells or cells transduced with the various peptides were cultured in the absence (Figure 2A) or presence of 50 µg/mL of bleomycin (Figure 2B) for 6 hours. Subsequently, the cells were lysed and the amount of yH2AX present in the extracts was determined by Western Blot in the same way as indicated for the assays in RL6TN cells described above.

[3] = tested on: rat lung epithelial cells RL6TN; experiment: yH2AX Western blot (DNA damage) in cells transduced with lentiviral peptide expression vectors; type: cell-based; conditions: 6 hours, relative to β-actin, normalised to CT
Experimental: In the experiment shown in Figure 1, rat lung epithelial cells RL6TN were transduced with lentiviral vectors directing the expression of the peptides under study and the corresponding controls. The presence of γH2AX was then determined by means of Western blot assays.
as §2

HaCaT cells [4] = experiment: IL-6 mRNA expression by quantitative PCR in transduced cells; type: cell-based, human; conditions: Figure 5B
Experimental: (§3) Another important component of tissue ageing is the production of pro-inflammatory interleukins that induce the presence of basal inflammation in tissues. This inflammatory situation also occurs in some diseases of premature ageing and in response to environmental aggressions. Interleukin-6 (IL-6) is one of the main pro-inflammatory molecules and, for this reason, the possible effect of the expression of the peptides on the synthesis of this molecule was determined. In these experiments, the expression of the mRNA encoding IL-6 in cells transduced with the expression vectors of the P3 peptide and controls was determined.
(§4) RNA was obtained from RL6TN cells (Figure 5, panel A) or HaCaT cells (Figure 5, panel B) not transduced (CT) or transduced with lentiviral vectors expressing GFP or the GSE4 or P3 peptides. cDNA was synthesised from each RNA by reverse transcription and the amount of mRNA encoding IL-6 was quantified by quantitative PCR as described in Examples 2 and 3 above.
(§5) The obtained results are shown in Figures 5A (RLE6TN cells) and 5B (HaCaT cells). In the assays with RLE6TN cells, oligonucleotides with SEQ ID Nos: 39 and 40 for IL-6 and SEQ ID Nos: 43 and 44 for GAPDH were used for quantitative PCRs. In the assay performed with HaCaT cells, oligonucleotides with SEQ ID Nos: 37 and 38 for IL-6 and SEQ ID Nos: 41 and 42 for GAPDH were used.

HaCaT cells [5] = experiment: TGFβ-induced expression of TGFβ receptor and MCP1 mRNA (epithelial/mesenchymal transition), quantitative PCR; type: cell-based, human; conditions: 5 ng/mL TGFβ, 48 of culture; for induction of expression of TGFBR2 mRNA after incubating the cells with TGFβ: Figure 4B; for induction of expression of MCP1 mRNA after incubating the cells with TGFβ: p<0.05 for P3, Figure 4B
From the text: (§6) The ageing of some tissues is accompanied by fibrotic processes in which fibroblasts and myofibroblasts accumulate and in which epithelial/mesenchymal transition of epithelial cells is induced. This process occurs, for example, in idiopathic pulmonary fibrosis and in fibrosis processes as a result of skin exposure to ionising radiation. Many of these processes are mediated by the secretion of the cytokine TGFβ (transforming growth factorβ). The possible effect of the peptides on these processes was studied by incubating cells with TGFβ (R&D Systems, Bio-Techne, Minneapolis; MN, USA) and studying the expression of two mRNAs induced by this cytokine, i.e., the TGFβ receptor (TGFβR1/2) and the cytokine MCP1 (also referred to as CCL2) by means of reverse transcription of RNA and quantitative PCR.
(§7) Control cells or cells transduced with GFP expression vectors, or the GSE4 and P3 peptides were cultured in the absence or presence of a concentration of 5 ng/mL of the TGFβ factor (identified with the symbol + in Figure 4) to induce epithelial/mesenchymal transition. After 48 of culture, RNA was obtained from the cells and converted into cDNA by means of reverse transcription. The expression levels of the mRNA encoding TGFBR-1/2 (TGFβ-receptor 1 or 2) and MCP1 (monocyte chemoattractant protein-1, also referred to as CCL2: C-C motif chemokine ligand 2) were determined by quantitative PCR. The values obtained were corrected by those corresponding to the control mRNA (GAPDH) and normalised by the expression in control cells (CT).
(§8) In the assays shown in Figures 4A, for RLE6TN cells, oligonucleotides SEQ ID Nos 31 and 32 for TGFBR1, 35 and 36 for MCP1, and 43 and 44 for GAPDH were used in quantitative PCR. To obtain the results shown in Figure 4B, for HaCaT cells, oligonucleotides SEQ ID Nos: 29 and 30 for TGFBR2, SEQ ID Nos: 33 and 34 for MCP1, and SEQ ID Nos: 41y 42 for GAPDH b were used.

RLE6TN cells [6] = experiment: IL-6 mRNA expression by quantitative PCR in transduced cells; type: cell-based, rat; conditions: Figure 5A
Experimental: as §3, §4, §5

RLE6TN cells [7] = experiment: TGFβ-induced expression of TGFβ receptor and MCP1 mRNA (epithelial/mesenchymal transition), quantitative PCR; type: cell-based, rat; conditions: 5 ng/mL TGFβ, 48 of culture; for induction of expression of Mcp1 mRNA after incubating the cells with TGFβ: p<0.01 for P3 and GSE4, Figure 4A; for induction of expression of Tgfbr1 mRNA after incubating the cells with TGFβ: p<0.05 for P3, Figure 4A
From the text: as §6, §7, §8

RLE6TN cells [8] = experiment: TERT and TERC mRNA expression by quantitative PCR in transduced cells; type: cell-based, rat; conditions: corrected by GAPDH, normalised to CT; for expression of Tert mRNA: Figure 3A; for expression of Terc: p<0.05, Figure 3B
From the text: as §1
For assays performed in RLE6TN cells, shown in Figures 3A and 3B, oligonucleotides corresponding to SEQ ID Nos: 23, 24 for TERT, SEQ ID Nos:27, 28 for TERC, and SEQ ID Nos:43, 44 for GAPDH were used in quantitative PCR assays.

[9] = baseline damage (absence of bleomycin), Figure 2A
[10] = 4 µg/mL of bleomycin, Figure 1B
[11] = culture control conditions (absence of bleomycin), Figure 1A

## DKPSNPSSHE [P3, GSE24.2-derived peptide of 10 amino acids, expressed in cells from a lentiviral vector]
HaCaT cells [1]
  expression of Terc: caused an increase
  expression of TERT: caused an increase
HaCaT cells [2]; 50 µg/mL of bleomycin, Figure 2B
  DNA damage signalling (amount of yH2AX): reduces DNA damage signalling
HaCaT cells [2]; [9]
  DNA damage signalling (amount of yH2AX): reduces DNA damage signalling
[3]; [10]
  levels of yH2AX: causes a decrease in the levels of yH2AX
[3]; [11]
  levels of yH2AX: causes a decrease in the levels of yH2AX
HaCaT cells [4]
  expression of IL-6 mRNA: decreased the expression of IL-6 mRNA
HaCaT cells [5]
  induction of expression of TGFBR2 mRNA after incubating the cells with TGFβ: decreases the induction of expression of both markers
  induction of expression of MCP1 mRNA after incubating the cells with TGFβ: decreases the induction of expression of both markers
RLE6TN cells [6]
  expression of IL-6 mRNA: decreased the expression of IL-6 mRNA
RLE6TN cells [7]
  induction of expression of Mcp1 mRNA after incubating the cells with TGFβ: decreases the induction of expression of both markers
  induction of expression of Tgfbr1 mRNA after incubating the cells with TGFβ: decreases the induction of expression of both markers
RLE6TN cells [8]
  expression of Tert mRNA: an increase was also observed
  expression of Terc: significant increase

## GFINLDKPSNP [GSE4, reference compound]
HaCaT cells [1]
  expression of Terc: caused an increase
  expression of TERT: caused an increase
HaCaT cells [2]; [9]
  DNA damage signalling (amount of yH2AX): the reduction is greater than that caused by the expression of GSE4
[3]; [10]
  levels of yH2AX: This decrease is greater than that caused by the expression of the GSE4 peptide
[3]; [11]
  levels of yH2AX: This decrease is greater than that caused by the expression of the GSE4 peptide
HaCaT cells [4]
  expression of IL-6 mRNA: decreased the expression of IL-6 mRNA
HaCaT cells [5]
  induction of expression of TGFBR2 mRNA after incubating the cells with TGFβ: also causes this inhibitory effect of the response to TGFβ
  induction of expression of MCP1 mRNA after incubating the cells with TGFβ: also causes this inhibitory effect of the response to TGFβ
RLE6TN cells [6]
  expression of IL-6 mRNA: decreased the expression of IL-6 mRNA
RLE6TN cells [7]
  induction of expression of Mcp1 mRNA after incubating the cells with TGFβ: also causes this inhibitory effect of the response to TGFβ
  induction of expression of Tgfbr1 mRNA after incubating the cells with TGFβ: also causes this inhibitory effect of the response to TGFβ
RLE6TN cells [8]
  expression of Tert mRNA: an increase was also observed
  expression of Terc: significant increase
